Test system: 485368-065-R4-J2-PDC spheroids with HUVEC/MSC, viability
Assay: Anticancer human tumor 485368-065-R4-J2-PDC patient-derived pancreatic carcinoma cell line growth inhibition [CLK]
Conditions: for IC50: curve of first compound; for viability, T/C: stronger effect = lower value
Method in brief: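 Multi-cell-type spheroids combined patient-derived tumor cells with HUVEC endothelial cells and human mesenchymal stem cells. Paired agents were dosed in half-log steps down from about clinical Cmax, or from 10 microM where Cmax was unknown.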

[1] = second compound 0.0316 µM, first compound 0.0316 µM
[2] = second compound 0.0316 µM, first compound 0.1 µM
[3] = second compound 0.0316 µM, first compound 0.316 µM
[4] = second compound 0.0316 µM, first compound 1 µM
[5] = second compound 0.0316 µM, first compound 3.16 µM
[6] = second compound 0.0316 µM, first compound 10 µM
[7] = second compound 0.1 µM, first compound 0.0316 µM
[8] = second compound 0.1 µM, first compound 0.1 µM
[9] = second compound 0.1 µM, first compound 0.316 µM
[10] = second compound 0.1 µM, first compound 1 µM
[11] = second compound 0.1 µM, first compound 3.16 µM
[12] = second compound 0.1 µM, first compound 10 µM
[13] = second compound 0.316 µM, first compound 0.0316 µM
[14] = second compound 0.316 µM, first compound 0.1 µM
[15] = second compound 0.316 µM, first compound 0.316 µM
[16] = second compound 0.316 µM, first compound 1 µM
[17] = second compound 0.316 µM, first compound 3.16 µM
[18] = second compound 0.316 µM, first compound 10 µM
[19] = second compound 1 µM, first compound 0.0316 µM
[20] = second compound 1 µM, first compound 0.1 µM
[21] = second compound 1 µM, first compound 0.316 µM
[22] = second compound 1 µM, first compound 1 µM
[23] = second compound 1 µM, first compound 3.16 µM
[24] = second compound 1 µM, first compound 10 µM
[25] = second compound 3.16 µM, first compound 0.0316 µM
[26] = second compound 3.16 µM, first compound 0.1 µM
[27] = second compound 3.16 µM, first compound 0.316 µM
[28] = second compound 3.16 µM, first compound 1 µM
[29] = second compound 3.16 µM, first compound 3.16 µM
[30] = second compound 3.16 µM, first compound 10 µM
[31] = second compound 10 µM, first compound 0.0316 µM
[32] = second compound 10 µM, first compound 0.1 µM
[33] = second compound 10 µM, first compound 0.316 µM
[34] = second compound 10 µM, first compound 1 µM
[35] = second compound 10 µM, first compound 3.16 µM
[36] = second compound 10 µM, first compound 10 µM
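Further: spheroids exposed to compounds for seven days.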
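Wherever viability, T/C is given: 100% = DMSO vehicle control wells.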

Compound: COc1ccc([C@@H](O)c2cc(-c3ncnc4cc(N5CCOCC5)ccc34)c(F)cc2Cl)nn1 + CN1CCN(c2cc(C(=O)Nc3cc4cc(-c5cnn(C)c5)ccc4cn3)ccn2)CC1
- IC50 (second compound 0.0316 µM): > 10 µM
- IC50 (second compound 0.1 µM): > 10 µM
- IC50 (second compound 0.316 µM): 8.18 µM
- IC50 (second compound 1 µM): < 0.0316 µM
- IC50 (second compound 3.16 µM): < 0.0316 µM
- IC50 (second compound 10 µM): < 0.0316 µM
- viability, T/C [1]: 106%
- viability, T/C [2]: 109%
- viability, T/C [3]: 111%
- viability, T/C [4]: 119%
- viability, T/C [5]: 109%
- viability, T/C [6]: 82%
- viability, T/C [7]: 114%
- viability, T/C [8]: 113%
- viability, T/C [9]: 113%
- viability, T/C [10]: 115%
- viability, T/C [11]: 100%
- viability, T/C [12]: 74.6%
- viability, T/C [13]: 79%
- viability, T/C [14]: 81.2%
- viability, T/C [15]: 69.7%
- viability, T/C [16]: 65%
- viability, T/C [17]: 61.3%
- viability, T/C [18]: 47.2%
- viability, T/C [19]: 0.59%
- viability, T/C [20]: 0.61%
- viability, T/C [21]: 0.67%
- viability, T/C [22]: 0.97%
- viability, T/C [23]: 0.95%
- viability, T/C [24]: 1.67%
- viability, T/C [25]: 1.12%
- viability, T/C [26]: 1.03%
- viability, T/C [27]: 0.98%
- viability, T/C [28]: 1.02%
- viability, T/C [29]: 1.01%
- viability, T/C [30]: 1.54%
- viability, T/C [31]: 1.19%
- viability, T/C [32]: 1.26%
- viability, T/C [33]: 1.23%
- viability, T/C [34]: 1.29%
- viability, T/C [35]: 2.19%
- viability, T/C [36]: 3.09%

Compound: COc1cccc2c1C(=O)c1c(O)c3c(c(O)c1C2=O)CC(O)(C(=O)CO)CC3OC1CC(N)C(O)C(C)O1 (stereo not drawn) + CN1CCN(c2cc(C(=O)Nc3cc4cc(-c5cnn(C)c5)ccc4cn3)ccn2)CC1
- IC50 (second compound 0.0316 µM): 0.34 µM
- IC50 (second compound 0.1 µM): 0.215 µM
- IC50 (second compound 0.316 µM): 0.0869 µM
- IC50 (second compound 1 µM): < 0.0316 µM
- IC50 (second compound 3.16 µM): < 0.0316 µM
- IC50 (second compound 10 µM): < 0.0316 µM
- viability, T/C [1]: 97.5%
- viability, T/C [2]: 91.9%
- viability, T/C [3]: 51.1%
- viability, T/C [4]: 22.8%
- viability, T/C [5]: 6.06%
- viability, T/C [6]: 20.1%
- viability, T/C [7]: 95.9%
- viability, T/C [8]: 81.3%
- viability, T/C [9]: 34.5%
- viability, T/C [10]: 13.1%
- viability, T/C [11]: 5.58%
- viability, T/C [12]: 20.2%
- viability, T/C [13]: 69.8%
- viability, T/C [14]: 47.2%
- viability, T/C [15]: 12.7%
- viability, T/C [16]: 6.03%
- viability, T/C [17]: 8.55%
- viability, T/C [18]: 26.6%
- viability, T/C [19]: 0.88%
- viability, T/C [20]: 0.73%
- viability, T/C [21]: 1.56%
- viability, T/C [22]: 5.86%
- viability, T/C [23]: 12.6%
- viability, T/C [24]: 28.8%
- viability, T/C [25]: 1.17%
- viability, T/C [26]: 1.22%
- viability, T/C [27]: 2.37%
- viability, T/C [28]: 6.61%
- viability, T/C [29]: 14.8%
- viability, T/C [30]: 30.9%
- viability, T/C [31]: 1.73%
- viability, T/C [32]: 1.28%
- viability, T/C [33]: 2.28%
- viability, T/C [34]: 8.69%
- viability, T/C [35]: 14.6%
- viability, T/C [36]: 27.2%

Compound: CCCS(=O)(=O)Nc1ccc(F)c(C(=O)c2c[nH]c3ncc(-c4ccc(Cl)cc4)cc23)c1F + CNC(=O)c1ccc(Nc2nc(OC3CCCC3)c3c(-c4ccc5nc(C)oc5c4)c[nH]c3n2)c(OC)c1
- IC50 (second compound 0.0316 µM): > 10 µM
- IC50 (second compound 0.1 µM): > 10 µM
- IC50 (second compound 0.316 µM): > 10 µM
- IC50 (second compound 1 µM): > 10 µM
- IC50 (second compound 3.16 µM): > 10 µM
- IC50 (second compound 10 µM): > 10 µM
- viability, T/C [1]: 92.6%
- viability, T/C [2]: 95.1%
- viability, T/C [3]: 93.2%
- viability, T/C [4]: 97.5%
- viability, T/C [5]: 91.6%
- viability, T/C [6]: 114%
- viability, T/C [7]: 100%
- viability, T/C [8]: 99.5%
- viability, T/C [9]: 95.9%
- viability, T/C [10]: 90.1%
- viability, T/C [11]: 98.3%
- viability, T/C [12]: 112%
- viability, T/C [13]: 90%
- viability, T/C [14]: 84.8%
- viability, T/C [15]: 87.9%
- viability, T/C [16]: 85.4%
- viability, T/C [17]: 95.9%
- viability, T/C [18]: 104%
- viability, T/C [19]: 83.5%
- viability, T/C [20]: 80.7%
- viability, T/C [21]: 85.7%
- viability, T/C [22]: 78.9%
- viability, T/C [23]: 89.7%
- viability, T/C [24]: 105%
- viability, T/C [25]: 70.7%
- viability, T/C [26]: 75.5%
- viability, T/C [27]: 85.4%
- viability, T/C [28]: 78.9%
- viability, T/C [29]: 95.2%
- viability, T/C [30]: 99.5%
- viability, T/C [31]: 75.7%
- viability, T/C [32]: 73.6%
- viability, T/C [33]: 86.7%
- viability, T/C [34]: 78.9%
- viability, T/C [35]: 90.1%
- viability, T/C [36]: 93.4%

Compound: COC1C=CCC(C)C(C)S(=O)(=O)NC(=O)c2ccc3c(c2)N(CC2CCC21)CC1(CCCc2cc(Cl)ccc21)CO3 (stereo not drawn) + CNC(=O)c1ccc(Nc2nc(OC3CCCC3)c3c(-c4ccc5nc(C)oc5c4)c[nH]c3n2)c(OC)c1
- IC50 (second compound 0.0316 µM): > 10 µM
- IC50 (second compound 0.1 µM): > 10 µM
- IC50 (second compound 0.316 µM): > 10 µM
- IC50 (second compound 1 µM): > 10 µM
- IC50 (second compound 3.16 µM): > 10 µM
- IC50 (second compound 10 µM): > 10 µM
- viability, T/C [1]: 88.7%
- viability, T/C [2]: 82.8%
- viability, T/C [3]: 96.8%
- viability, T/C [4]: 105%
- viability, T/C [5]: 103%
- viability, T/C [6]: 85.9%
- viability, T/C [7]: 96%
- viability, T/C [8]: 99.7%
- viability, T/C [9]: 105%
- viability, T/C [10]: 96.4%
- viability, T/C [11]: 92.8%
- viability, T/C [12]: 91.3%
- viability, T/C [13]: 82.5%
- viability, T/C [14]: 77.9%
- viability, T/C [15]: 89.8%
- viability, T/C [16]: 89.7%
- viability, T/C [17]: 98.8%
- viability, T/C [18]: 102%
- viability, T/C [19]: 83.2%
- viability, T/C [20]: 74.1%
- viability, T/C [21]: 73.7%
- viability, T/C [22]: 74.9%
- viability, T/C [23]: 91.8%
- viability, T/C [24]: 105%
- viability, T/C [25]: 71.2%
- viability, T/C [26]: 69.7%
- viability, T/C [27]: 72.9%
- viability, T/C [28]: 68.4%
- viability, T/C [29]: 94.2%
- viability, T/C [30]: 102%
- viability, T/C [31]: 65.5%
- viability, T/C [32]: 68.6%
- viability, T/C [33]: 69.1%
- viability, T/C [34]: 66.7%
- viability, T/C [35]: 82.3%
- viability, T/C [36]: 85.9%

Reference: PubChem BioAssay AID2060617 (Molecular Pharmacology Branch, DTP, NCI, 2025)
